# Assay results as given in patent US9149038B2, “4-amino-6-(heterocyclic)picolinates and 6-amino-2-(heterocyclic)pyrimidine-4-carboxylates and their use as herbicides” (Dow AgroSciences LLC, priority 2013, dated 2015).
# Read-outs that look alike come from different tables or passages of the source.
# Tests used:
# [1] = system: Key Grass and Sedge Weeds as well as Grass Crops; test: Post-Emergent Test II: postemergent herbicidal activity, visual rating after 14 d (Table 8); type: in vivo; details: post-emergence, 336 h; for pest or weed control at 35 g/ha: 35 g ai/ha; for pest or weed control at 70 g/ha: 70 g ai/ha; for pest or weed control at 140 g/ha: 140 g ai/ha
# Summary of the method: (§1)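 Greenhouse-grown plants at the first or second true leaf stage (7-21 d, ~15 h photoperiod, 23-29° C day) were sprayed with compound in acetone/DMSO-based aqueous spray containing crop oil concentrate and Triton X-155 at 187 L/ha. Injury versus untreated plants was rated visually after 14 d on a 0-100 scale.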
# [2] = system: Key Broadleaf Weed and Crop Species; test: Post-Emergent Test II: postemergent herbicidal activity, visual rating after 14 d (Table 7); type: in vivo; details: post-emergence, 336 h; for pest or weed control at 35 g/ha: 35 g ai/ha; for pest or weed control at 70 g/ha: 70 g ai/ha; for pest or weed control at 140 g/ha: 140 g ai/ha
# Summary of the method: as §1
# [3] = barnyardgrass (Echinochloa crus-galli), read-out: Visual Growth Reduction (%) 14 Days After Application, ECHCG
# [4] = giant foxtail (Setaria faberi), read-out: Visual Growth Reduction (%) 14 Days After Application, SETFA
# [5] = maize, corn (Zea mays), read-out: Visual Growth Reduction (%) 14 Days After Application, ZEAMX
# [6] = rice (Oryza sativa), read-out: Visual Growth Reduction (%) 14 Days After Application, ORYSA
# [7] = wheat, spring (Triticum aestivum), read-out: Visual Growth Reduction (%) 14 Days After Application, TRZAS
# [8] = yellow nutsedge (Cyperus esculentus), read-out: Visual Growth Reduction (%) 14 Days After Application, CYPES
# [9] = ABUTH: velvetleaf (Abutilon theophrasti), read-out: Visual Growth Reduction (%) 14 Days After Application ABUTH
# [10] = AMARE: redroot pigweed (Amaranthus retroflexus), read-out: Visual Growth Reduction (%) 14 Days After Application AMARE
# [11] = BRSNN: oilseed rape, canola (Brassica napus), read-out: Visual Growth Reduction (%) 14 Days After Application BRSNN
# [12] = CHEAL: lambsquarters (Chenopodium album), read-out: Visual Growth Reduction (%) 14 Days After Application CHEAL
# [13] = EPHHL: wild poinsettia (Euphorbia heterophylla), read-out: Visual Growth Reduction (%) 14 Days After Application EPHHL
# [14] = HELAN: sunflower (Helianthus annuus), read-out: Visual Growth Reduction (%) 14 Days After Application HELAN
smiles,measurement,setting,value
"COC(=O)c1nc(-c2ccc3c(c2)OCC3)c(F)c(N)c1Cl [Compound 100, Methyl 4-amino-3-chloro-6-(2,3-dihydrobenzofuran-6-yl)-5-fluoropicolinate]",pest or weed control at 35 g/ha,[1]; [3],45 to 59%
same,pest or weed control at 70 g/ha,[1]; [3],75 to 84%
same,pest or weed control at 140 g/ha,[1]; [3],85 to 94%
same,pest or weed control at 35 g/ha,[1]; [4],0 to 29%
same,pest or weed control at 70 g/ha,[1]; [4],0 to 29%
same,pest or weed control at 140 g/ha,[1]; [4],0 to 29%
same,pest or weed control at 35 g/ha,[1]; [5],0 to 29%
same,pest or weed control at 70 g/ha,[1]; [5],95 to 100%
same,pest or weed control at 140 g/ha,[1]; [5],95 to 100%
same,pest or weed control at 35 g/ha,[1]; [6],0 to 29%
same,pest or weed control at 70 g/ha,[1]; [6],0 to 29%
same,pest or weed control at 140 g/ha,[1]; [6],0 to 29%
same,pest or weed control at 35 g/ha,[1]; [7],0 to 29%
same,pest or weed control at 70 g/ha,[1]; [7],0 to 29%
same,pest or weed control at 140 g/ha,[1]; [7],0 to 29%
same,pest or weed control at 35 g/ha,[1]; [8],0 to 29%
same,pest or weed control at 70 g/ha,[1]; [8],0 to 29%
same,pest or weed control at 140 g/ha,[1]; [8],0 to 29%
same,pest or weed control at 35 g/ha,[2]; [9],45 to 59%
same,pest or weed control at 70 g/ha,[2]; [9],85 to 94%
same,pest or weed control at 140 g/ha,[2]; [9],95 to 100%
same,pest or weed control at 35 g/ha,[2]; [10],75 to 84%
same,pest or weed control at 70 g/ha,[2]; [10],95 to 100%
same,pest or weed control at 140 g/ha,[2]; [10],95 to 100%
same,pest or weed control at 35 g/ha,[2]; [11],0 to 29%
same,pest or weed control at 70 g/ha,[2]; [11],0 to 29%
same,pest or weed control at 140 g/ha,[2]; [11],0 to 29%
same,pest or weed control at 35 g/ha,[2]; [12],95 to 100%
same,pest or weed control at 70 g/ha,[2]; [12],95 to 100%
same,pest or weed control at 140 g/ha,[2]; [12],95 to 100%
same,pest or weed control at 35 g/ha,[2]; [13],95 to 100%
same,pest or weed control at 70 g/ha,[2]; [13],95 to 100%
same,pest or weed control at 140 g/ha,[2]; [13],95 to 100%
same,pest or weed control at 35 g/ha,[2]; [14],60 to 74%
same,pest or weed control at 70 g/ha,[2]; [14],60 to 74%
same,pest or weed control at 140 g/ha,[2]; [14],75 to 84%
